# From patent US8865750B2, “Small molecule inhibitors of RGS proteins” (The Regents of The University of Michigan, priority 2011, dated 2014)
# Entries after “also recorded” stand apart in the source; their conditions may differ.
# How the values were obtained:
# HEK293 cells = assay: Calcium mobilization induced by compound alone; type: cell-based;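 on Calcium transient (% 50014): percent of response to 10 µM reference CCG-50014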
# How it was run: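 HEK-293 Flp-In TREx cells stably expressing muscarinic M3 receptor, with human RGS4 induced by 1 μg/mL doxycycline for 24-48 h, loaded with Fluo-4 for 30 min at 37° C. Compound added without carbachol; fluorescence followed for 120 s, quantified as area under curve or peak intensity.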
# Gα0 = Gα0 (Homo sapiens (Human), UniProt P09471); assay: Intrinsic GTP hydrolysis by Gαo (single turnover); type: biochemical
# Description: Single Turnover GTPase Measurements:
# Compounds were tested for the ability to inhibit the RGS4 and RGS8-stimulated increase in GTP hydrolysis by Gα0 as described previously (Roman, D. L., et al., Mol Pharmacol, 2007. 71(1): p. 169-75; Roof, R. A., et al., Chem Biol Drug Des, 2006. 67(4): p. 266-74).
# Single-turnover GAP assay: Experiments were performed as previously described using purified his6-tagged Gαo (Blazer et al., Biochemistry 50, 3181-3192; Roof et al., (2008) Chem Biol Drug Des 72, 111-119).
# [1] = Heart rate and blood pressure in freely-moving rats; type: in vivo
# Excerpt: The muscarinic agonist carbachol can induce a transient bradycardic effect by activating M2 receptors in the SAN.
# PLCβ3 = PLCβ3 (Homo sapiens (Human), UniProt Q01970); assay: PLCβ inhibition assay; type: biochemical; conditions: Table 7
# Description: PLCβ inhibition assay: Lipid vesicles containing 200 μM phosphatidylethanolamine, 50 μM PIP2 (Avanti Polar Lipids), and ˜4000-8000 cpm [^3H]-labeled PIP2 (Perkin-Elmer) per assay were generated by combining the lipids in a borosilicate glass tube and drying the mixture under a stream of nitrogen. Dried lipids were resuspended in 50 mM HEPES pH 7, 80 mM KCl, 2 mM EGTA and 1 mM DTT using a bath sonicator. Activity assays were performed in a final volume of 60 μL containing 3 ng mL^−1 PLCβ3, 50 mM HEPES pH 7, 80 mM KCl, 15 mM NaCl, 0.83 mM MgCl2, 3 mM DTT, 1 mg mL^−1 BSA, 2.5 mM EGTA, 0.2 mM EDTA, 2% DMSO, and enough CaCl2 to give a free concentration of ˜200 nM. […] The reactions were initiated by the addition of liposomes and transferred to 30° C. for 5 min. Reactions were terminated by the addition of 100 μL 10 mg mL^−1 BSA and 200 μL 10% (w/v) ice-cold trichloroacetic acid. The reactions were centrifuged at 8000 g for 5 min to pellet proteins and liposomes, and 200 μL of the resulting supernatant containing free [^3H]-IP3 was measured by scintillation counting (Ghosh et al., (2004) Methods Mol Biol 237, 67-75) GSK-3β inhibition assay: […]
# RGS4 = assay: FCPIA: Gαo binding to RGS4
# Excerpt: (§1) FCPIA Dose Response and Reversibility Experiments:
# M3 muscarinic receptor = assay: Carbachol-induced Ca2+ response, M3 cells without RGS4 dependence; type: cell-based; conditions: for effect on carbachol-induced Ca2+ response (RGS-independent): 10 μM (FIG. 20) or as stated
# Description: Calcium Mobilization Experiments:
# (§2) A stable cell line was developed based upon the HEK-293 Flp-In TREx cell line (Invitrogen, Carlsbad, Calif.) that stably express the muscarinic M3 receptor and have human RGS4 expression under doxycycline control. Cells were maintained in DMEM supplemented with 10% fetal bovine serum and Penicillin (100 units/ml)-Streptomycin (100 μg/ml) under 5% CO2 at 37° C. For experiments, cells were split into 96-well black, clear bottom, poly-D-lysine coated microtiter plates (Nunc, Cat. #152037) at a density of 20,000 cells/well in DMEM containing 10% fetal bovine serum and Penicillin (100 units/ml), Streptomycin (100 μg/ml). RGS4 expression was induced by supplementing the medium with 1 μg/mL doxycycline for 24-48 hours before experimentation. Cells were loaded with Fluo-4 No Wash dye in buffer for 30 minutes at 37° C. Compounds and/or carbachol were added to the wells and the fluorescence intensity was measured using a FlexStation (Molecular Devices, Sunnyvale, Calif.) plate reader. Data analysis was performed by calculating the area under the curve or maximal fluorescence intensity from a 120 second kinetic measurement.
# as §2, with “Calcium signaling transients: A” for “A”, “units/ml)-Streptomycin” for “units/ml), Streptomycin”
# αAR = assay: NIMH Psychoactive Drug Screening Program receptor panel
# Description: (§3) Furthermore, the compound was tested against a panel of receptors via collaboration with the NIMH Psycoactive Drug Screening Program.
# [2] = test system: muscarinic class of GPCRs; assay: as above
# Description: as §3
# RGS16 = RGS16 (Homo sapiens (Human), UniProt O15492); assay: FCPIA: Gαo binding to RGS16; conditions: Table 7
# Description: as §1
# FCPIA was performed as previously described using chemically biotinylated RGS proteins and AlexaFluor-532 labeled Gα0. (Roman et al., J Biomol Screen, 2009; Blazer, L. L., et al., Mol Pharmacol).
# RGS/Gα binding studies: The binding of biotinylated RGS proteins to fluorescently labeled Gαo was measured by Flow Cytometry Protein Interaction Assay (FCPIA) method previously described (Roman et al., (2009) J Biomol Screen.; Blazer et al., (2010) Curr Protoc Cytom Chapter 13, Unit 13 11 11-15; Roman et al., (2007) Mol Pharmacol 71, 169-175) as were the measures of compound reversibility.
# Chain of PLCβ3 (Q01970 whole entry, species assumed): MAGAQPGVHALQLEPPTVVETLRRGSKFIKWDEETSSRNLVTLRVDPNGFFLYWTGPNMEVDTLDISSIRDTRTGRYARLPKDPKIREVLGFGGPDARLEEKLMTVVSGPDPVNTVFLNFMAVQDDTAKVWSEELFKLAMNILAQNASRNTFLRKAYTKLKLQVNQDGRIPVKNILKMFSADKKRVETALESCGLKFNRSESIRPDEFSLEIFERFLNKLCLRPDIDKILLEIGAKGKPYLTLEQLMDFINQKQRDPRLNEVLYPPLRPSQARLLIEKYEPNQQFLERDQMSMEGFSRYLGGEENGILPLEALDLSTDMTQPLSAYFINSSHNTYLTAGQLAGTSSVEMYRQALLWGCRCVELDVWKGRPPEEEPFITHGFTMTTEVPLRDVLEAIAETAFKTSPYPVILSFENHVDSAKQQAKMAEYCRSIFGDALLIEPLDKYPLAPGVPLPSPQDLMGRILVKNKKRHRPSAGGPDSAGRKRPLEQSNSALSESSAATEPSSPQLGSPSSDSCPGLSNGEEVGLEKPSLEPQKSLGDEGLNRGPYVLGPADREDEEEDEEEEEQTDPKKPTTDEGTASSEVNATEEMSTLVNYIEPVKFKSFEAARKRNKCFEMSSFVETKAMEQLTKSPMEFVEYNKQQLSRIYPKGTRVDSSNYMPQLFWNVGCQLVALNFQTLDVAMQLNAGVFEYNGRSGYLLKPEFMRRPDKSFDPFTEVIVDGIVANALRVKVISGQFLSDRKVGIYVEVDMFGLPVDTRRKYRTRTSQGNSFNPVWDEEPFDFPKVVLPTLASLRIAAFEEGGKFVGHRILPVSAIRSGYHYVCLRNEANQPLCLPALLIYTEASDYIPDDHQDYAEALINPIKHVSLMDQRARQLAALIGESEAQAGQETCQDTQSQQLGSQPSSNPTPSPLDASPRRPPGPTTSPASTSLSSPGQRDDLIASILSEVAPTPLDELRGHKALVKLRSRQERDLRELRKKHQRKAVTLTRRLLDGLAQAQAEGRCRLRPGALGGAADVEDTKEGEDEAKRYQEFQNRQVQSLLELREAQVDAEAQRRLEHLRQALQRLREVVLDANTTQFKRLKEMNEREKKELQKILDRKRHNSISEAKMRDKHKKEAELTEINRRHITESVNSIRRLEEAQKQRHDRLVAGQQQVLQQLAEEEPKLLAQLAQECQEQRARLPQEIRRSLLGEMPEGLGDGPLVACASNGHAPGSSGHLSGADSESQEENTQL
# Chain of RGS16 (O15492 whole entry, species assumed): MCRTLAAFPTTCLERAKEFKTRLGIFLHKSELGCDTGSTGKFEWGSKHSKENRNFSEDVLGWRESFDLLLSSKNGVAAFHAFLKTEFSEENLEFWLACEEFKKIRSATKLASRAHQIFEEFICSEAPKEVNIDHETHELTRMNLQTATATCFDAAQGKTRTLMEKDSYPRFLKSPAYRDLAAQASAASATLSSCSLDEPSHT
# Chain of Gα0 (P09471 whole entry): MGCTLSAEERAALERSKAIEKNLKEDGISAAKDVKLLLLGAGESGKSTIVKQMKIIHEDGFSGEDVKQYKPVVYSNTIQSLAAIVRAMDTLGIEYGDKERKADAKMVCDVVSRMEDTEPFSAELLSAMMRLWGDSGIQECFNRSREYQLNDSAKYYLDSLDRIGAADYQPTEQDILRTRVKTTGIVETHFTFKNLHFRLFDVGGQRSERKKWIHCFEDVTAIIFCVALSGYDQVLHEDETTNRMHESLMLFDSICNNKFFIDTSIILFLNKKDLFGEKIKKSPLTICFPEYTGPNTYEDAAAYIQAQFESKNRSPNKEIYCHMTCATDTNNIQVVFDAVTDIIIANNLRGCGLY
smiles,measurement,setting,value
"CCCCn1c(=O)sn(CC)c1=O [CCG-203769, 2-ethyl-4-butyl-1,2,4-thiadiazolidine-3,5-dione]",induction of calcium transient by compound alone,"HEK293 cells; 10 μM, HEK293 cells",no ability to induce calcium mobilization
same,Emax at 10 µM,"HEK293 cells; Homo sapiens, HEK293, read-out: Calcium transient (% 50014)",2.7%
same,basal GTPase activity of the G protein,Gα0,without inhibiting the basal GTPase activity
same,"blood pressure, carbachol plus compound",[1]; 10 mg/kg IV + carbachol 0.1 mg/kg IP,does not reach statistical significance
same,bradycardic effect of carbachol after compound,[1]; 10 mg/kg IV before carbachol 0.1 mg/kg IP,significantly potentiated
same,"effect upon blood pressure, compound alone","[1]; 10 mg/kg, IV",no significant effect
same,"effect upon heart rate, compound alone","[1]; 10 mg/kg, IV",no significant effect
same,IC50,PLCβ3,> 100 µM
same,reversibility of RGS4 inhibition after washing,"RGS4; 100 μM CCG-50014 or 500 nM CCG-203769, beads washed",irreversible
same,IC50,"RGS4; FCPIA, listed as 11b, read-out: IC50 against RGS4",0.0144 µM
same,RGS4 Hill Slope,RGS4; Table 3,−0.71
same,concentration above which carbachol Ca2+ transient is inhibited,M3 muscarinic receptor,> 3 µM
same,effect on carbachol-induced Ca2+ response (RGS-independent),M3 muscarinic receptor,without affecting M3-mediated calcium signal; also recorded: does not directly affect the carbachol stimulation
same,effect on carbachol-induced Ca2+ response (RGS-independent),M3 muscarinic receptor; listed as 11b,no effect
same,effect on αAR,αAR,able to inhibit
same,effect upon muscarinic class of GPCRs,[2],little to no observable effect
same,IC50,RGS16,6 µM
